Measured values as given in patent publication US12576073B2, “Antiarrhythmic formulation” (InCarda Therapeutics, Inc., priority 2019, dated 2026).
Converted amounts (≈) assume the structure as drawn. Structures can show the parent of a compound that is named as a salt. Where two headings read alike, the source gives them in different places.

How the values were obtained:
Beagle dogs = assay: 14-day repeat dose face mask inhalation toxicity study in dogs; settings: dog, in vivo
Description: This example describes a 14-day repeated-dose toxicity study via face mask inhalation with 14 day recovery in dogs.
In addition to the aerosol drug concentration, the aerosol particle size distribution was also characterized. The particle size average MMAD and GSD for the Low-, Mid-, and High-dose groups were 2.38 (1.79), 2.03 (1.87) and 2.08 (1.79) microns, respectively, and 1.74 (1.88) microns for vehicle control group. […] Chamber oxygen levels were monitored throughout the exposures. Main study animals were sacrificed on Day 15. Recovery animals were sacrificed on Day 29 following a 14-day recovery period. Endpoints included clinical observations, body weights, ophthalmology, clinical pathology, urinalysis, gross pathology, histopathology, and bioanalytical and toxicokinetic analyses.

[1] = test system: patients with recent onset of symptomatic paroxysmal atrial fibrillation; assay: FLE-002 (INSTANT) study: QRS interval from 12-lead ECG; assay type: in vivo, human; settings: change from baseline
[2] = Solubility of flecainide in D/L-lactic acid media; assay type: physicochemical; settings: thermodynamic from solid
Protocol: D-lactic acid, L-lactic acid, or DL-lactic acid was slowly added portionwise to the suspension while stirring. The system was left to equilibrate for 30 minutes, and the pH was determined. The pH was then adjusted to 5.2-6 with NaOH if necessary. After addition of NaOH, the system was again left to equilibrate for 30 minutes before pH was measured. After the desired pH was achieved, the suspension was stirred (1000 rpm) at ambient temperature for 48 hours. At 24 hours and 48 hours of stirring, samples of each solution were centrifuged at 10000 rpm for 2 minutes and filtered with a 0.45 μm membrane to obtain supernatant for pH determination and HPLC analysis. Solids from each sample were also characterized by X-ray powder diffraction (XRPD) analysis.

[3] = FLE-002 (INSTANT) study: plasma levels of flecainide (Cmax); assay type: in vivo; settings: human, inhaled, oral inhalation
[4] = test system: patients with recent onset of symptomatic paroxysmal atrial fibrillation; assay: FLE-002 (INSTANT) Phase 2 study: conversion of AF to sinus rhythm; assay type: in vivo, human; settings: within 60 minutes of dosing, evaluable patients
Description: Patient eligibility for this study is generally consistent with eligibility for IV flecainide. 18 years and older, both male and female sexes are eligible for this study. Inclusion and exclusion criteria are summarized in TABLE 18A and TABLE 18B, respectively.
The study consists of 2 parts: Part A and Part B. Part A (dose finding) evaluates the feasibility of administration of IH Flec. Part B will confirm the dose and will include a pilot sub-study to simulate a patient led scenario with medical supervision.
Part A study. […] IH Flec formulations tested in this study include the ones listed in TABLE 19 (*, “CD” denotes a cyclodextrin-based formulation including 10% (w/v) hydroxypropyl β-cyclodextrin, 90 mM acetic acid buffer, and having a pH of 5.2; **, “iCD-SAC” denotes a cyclodextrin-based formulation including 20% β(w/v) hydroxypropyl β-cyclodextrin, 5 mM acetic acid, and 750 μM saccharin, and having a pH of 5.9).
In this study, for inhalation delivery of flecainide, the estimated total lung doses (eTLDs) were calculated to account for losses of flecainide in the inhalation device and losses of flecainide in subjects' mouth and throat. eTLD was thereby used to denote the dose that actually reached the lungs of the subjects. By design, in all nebulizers there can be a residual volume or mass of drug solution that stays in the nebulizer, and there can also be a percentage of the aerosol caught by subject's throat and mouth. For instance, in this study, it was estimated that 30% of the aerosol was lost in subject's throat and mouth. Therefore the eTLD would be: eTLD=(100−30)%*amount of aerosolized drug that left nebulizer=70%*(amount of drug placed in nebulizer−amount of drug staying in nebulizer).
The AeroEclipse®II BAN inhaler was used for nebulization and inhalation of the exemplary flecainide formulations. It is available as an approved device in several countries across the world including European countries, USA, and Canada. […]

[5] = test system: patients with recent onset of symptomatic paroxysmal atrial fibrillation; settings: inhaled, Total of all dose groups (N = 99)
[6] = Solubility comparison of different flecainide salts in 0.1M acid media; settings: for pH: Media (0.1M)
physchem [7] = settings: aqueous buffer
physchem [8] = settings: thermodynamic from solid
Description: The suspension was then magnetic stirred (1000 r/min) at RT for 24 hrs or 48 hrs.

[9] = Viscosity and complexation efficiency of flecainide acetate-HPβCD solutions; assay type: physicochemical; settings: solutions adjusted to pH 5.2 with NaOH
Description: In this example and the following examples, the (HP)-β-cyclodextrin used is “Cavitron W7 HP7 PHARMA”. The manufacturer (Ashland) specifies: <1.5% beta cyclodextrin (our batch had 1%) and molar substitution is between 0.86 and 1.14 (our batch had 1.05). From the manufacturer's brochure, the typical degree of substitution is 6.0 to 8.0 with an approximate average MW of 1520.
Beyond this concentration, the aerosol output rate can diminish slightly.

physchem [10] = assay: physchem
physchem [11] = assay type: physicochemical; settings: Solubility (mg/mL)
[12] = Solubility of flecainide acetate in binary, ternary and quaternary acid mixtures; settings: acid mixture (acetic/nitric/sulfuric acid), 25 °C, aqueous buffer, thermodynamic from solid

## O=C(NCC1CCCCN1)c1cc(OCC(F)(F)F)ccc1OCC(F)(F)F (stereo not shown) [flecainide]
Beagle dogs
  clinical observation associated with exposure: labored respiration during or immediately post exposure
[1]; 30 mg eTLD
  ΔQRSmax: 5.5 ± 13.1 ms
[1]; 60 mg eTLD
  ΔQRSmax: 4.2 ± 4.6 ms
[1]; 90 mg eTLD
  ΔQRSmax: 4.1 ± 3.2 ms
[2]; 20% w/v HPβCD in water with D-lactic acid, aqueous with cosolvent or surfactant or cyclodextrin, 20% w/v HPβCD, D-lactic acid, pH 5.8
  solubility at 24 h: 84.8 mg/mL (≈ 205 mM)
[2]; 20% w/v HPβCD in water with D-lactic acid, aqueous with cosolvent or surfactant or cyclodextrin, 20% w/v HPβCD, D-lactic acid, pH 5.5
  solubility at 48 h: 88.4 mg/mL (≈ 213 mM)
[2]; 20% w/v HPβCD in water with L-lactic acid, aqueous with cosolvent or surfactant or cyclodextrin, 20% w/v HPβCD, L-lactic acid, pH 6.3
  solubility at 24 h: 87.6 mg/mL (≈ 211 mM)
[2]; 20% w/v HPβCD in water with L-lactic acid, aqueous with cosolvent or surfactant or cyclodextrin, 20% w/v HPβCD, L-lactic acid, pH 6
  solubility at 48 h: 89.3 mg/mL (≈ 216 mM)
[2]; HPβCD solution with DL-lactic acid, aqueous with cosolvent or surfactant or cyclodextrin, 20% w/v HPβCD, DL-lactic acid, pH 6.5
  solubility at 24 h: 72.4 mg/mL (≈ 175 mM)
[2]; pure water with D-lactic acid, aqueous buffer, no excipient (pure water), D-lactic acid, pH 5.1
  solubility at 24 h: 90.1 mg/mL (≈ 217 mM)
[2]; pure water with D-lactic acid, aqueous buffer, no excipient (pure water), D-lactic acid, pH 5.4
  solubility at 48 h: 91 mg/mL (≈ 220 mM)
[2]; pure water with DL-lactic acid, aqueous buffer, no excipient (pure water), DL-lactic acid, pH 6.1
  solubility at 24 h: 76.3 mg/mL (≈ 184 mM)
[2]; pure water with DL-lactic acid, aqueous buffer, no excipient (pure water), DL-lactic acid, pH 6
  solubility at 48 h: 73.4 mg/mL (≈ 177 mM)
[2]; pure water with L-lactic acid, aqueous buffer, no excipient (pure water), L-lactic acid, pH 5.6
  solubility at 24 h: 96.6 mg/mL (≈ 233 mM)
[2]; pure water with L-lactic acid, aqueous buffer, no excipient (pure water), L-lactic acid, pH 5.1
  solubility at 48 h: 97.8 mg/mL (≈ 236 mM)
[3]; 30 mg, 30 mg eTLD, read-out: Cmax (mean ± SD)
  Cmax: 127 ± 99.5 ng/mL
[3]; 30 mg, 30 mg eTLD, read-out: Cmax Range
  Cmax: 5.8 to 69 ng/mL
[3]; 60 mg, 60 mg eTLD, read-out: Cmax (mean ± SD)
  Cmax: 199 ± 222 ng/mL
[3]; 60 mg, 60 mg eTLD, read-out: Cmax Range
  Cmax: 6.6 to 817 ng/mL
[3]; 90 mg, 90 mg eTLD, read-out: Cmax (mean ± SD)
  Cmax: 248 ± 207 ng/mL
[3]; 90 mg, 90 mg eTLD, read-out: Cmax Range
  Cmax: 17 to 834 ng/mL
[4]; 30 mg eTLD
  Conversion Rate (AF to SR): 1/10 (10%)
[4]; 60 mg eTLD
  Conversion Rate (AF to SR): 7/20 (35%)
[4]; 90 mg eTLD
  Conversion Rate (AF to SR): 7/21 (33%)
[5]
  Adverse events: Cough: 51 (52) n (%)
  Adverse events: Dizziness: 5 (5) n (%)
  Adverse events: Dysphagia: 9 (9) n (%)
  Adverse events: Dyspnea: 6 (6) n (%)
  Adverse events: Gastrointestinal disorders: 23 (23) n (%)
  Adverse events: Hypotension: 7 (7) n (%)
  Adverse events: Nervous system disorders: 7 (7) n (%)
  Adverse events: Oropharyngeal pain: 14 (14) n (%)
  Adverse events: Respiratory, thoracic and mediastinal disorders: 60 (61) n (%)
  Adverse events: Salivary hypersecretion: 8 (8) n (%)
  Adverse events: Throat irritation: 12 (12) n (%)
  Adverse events: Vascular disorders: 10 (10) n (%)
  Patients with at least one TEAE: 80 (81) n (%)
  Patients with at least one TEAE, Moderate or Severe: 35 (35) n (%)
  Patients with at least one TEAE, Severe: 2 (2) n (%)
  Patients with at least one TEAE, Study-drug Related: 74 (75) n (%)
  Patients with at least one TESAE: 7 (7) n (%)
  Patients with at least one TESAE, Moderate or Severe: 6 (6) n (%)
  Patients with at least one TESAE, Severe: 2 (2) n (%)
  Patients with at least one TESAE, Study-drug Related: 4 (4) n (%)

## flecainide nitrate [Nitric Acid]
[6]
  pH: 4.0

## O=C(NCC1CCCCN1)c1cc(OCC(F)(F)F)ccc1OCC(F)(F)F (stereo not shown) [Hydrochloric Acid, flecainide hydrochloride]
Physchem [7]; Concentration (mg/mL) Freebase
  solubility: 5.34 mg/mL
[6]; hydrochloride
  pH: 5.0

## O=C(NCC1CCCCN1)c1cc(OCC(F)(F)F)ccc1OCC(F)(F)F (stereo not shown) [flecainide acetate]
Physchem [7]
  solubility: 64 mg/mL
Physchem [8]; aqueous with cosolvent or surfactant or cyclodextrin, 48 hrs Flecainide Acetate Solubility
  solubility at 48 h: 110 mg/mL
Physchem [8]; aqueous with cosolvent or surfactant or cyclodextrin, maximum solubility, calculated as freebase
  solubility at 24 h: 125 mg/mL
Physchem [8]; aqueous with cosolvent or surfactant or cyclodextrin, solubility (48 hrs), calculated as freebase
  solubility at 48 h: 105 mg/mL
Physchem [8]; water, 48 hrs Flecainide Acetate Solubility
  solubility at 48 h: 65.5 mg/mL
Physchem [8]; water, solubility of flecainide acetate water solution
  solubility: ~60 mg/mL
[6]
  pH: 4.6
[6]; XRPD confirmed form conversion
  effect of addition of sodium chloride (e.g. saline) to the formulation: precipitation and loss of solubility
[9]
  HPβCD molecules complexed with flecainide acetate: 80%
Physchem [10]; HPβCD solution with acetic acid, pH 4.9, aqueous with cosolvent or surfactant or cyclodextrin
  solubility: 136 mg/mL
Physchem [10]; HPβCD solution with acetic acid, pH 5.1, aqueous with cosolvent or surfactant or cyclodextrin
  solubility: 135 mg/mL
Physchem [10]; HPβCD solution with acetic acid, pH 5.2, aqueous with cosolvent or surfactant or cyclodextrin
  solubility: 135 mg/mL
Physchem [10]; HPβCD solution with acetic acid, pH 5.5, aqueous with cosolvent or surfactant or cyclodextrin
  solubility: 131 mg/mL
Physchem [10]; HPβCD solution without acetic acid, pH 6.3, aqueous with cosolvent or surfactant or cyclodextrin
  solubility: 125 mg/mL
Physchem [11]; pH 5.3, aqueous with cosolvent or surfactant or cyclodextrin
  solubility: 55 mg/mL
Physchem [11]; pH 5.5, aqueous with cosolvent or surfactant or cyclodextrin
  solubility: 69.7 mg/mL
[12]
  solubility: 82.4 mg/mL
